In patent US20170150719A1, “FUNGICIDAL PYRAZOLES AND THEIR MIXTURES” (E I DU PONT DE NEMOURS AND COMPANY, priority 2010, published 2017):

Columns and labels:
Alternaria solani = assay: Test B: tomato early blight, preventive spray on tomato seedlings, visual disease rating; details: for pest or weed control at 200 µg/mL: Alternaria solani, in Solanum lycopersicum, read-out: Test B rating (disease control); for Test B rating (disease control): tomato early blight, 100 = 100% disease control, 0 = no disease control relative to the controls
Septoria tritici = assay: Test F: wheat leaf blotch, preventive spray on wheat seedlings, visual disease rating; type: in vivo; details: 100 = 100% disease control, 0 = no disease control relative to the controls; for pest or weed control at 200 µg/mL: Zymoseptoria tritici
Text: (§1) A hyphen (-) indicates no test results.

Botrytis cinerea = assay: Test A: tomato Botrytis, preventive spray on tomato seedlings, visual disease rating; details: 100 = 100% disease control, 0 = no disease control relative to the controls; for pest or weed control at 200 µg/mL: Botrytis cinerea, in Solanum lycopersicum, read-out: Test A rating (disease control), tomato Botrytis; for Test A rating (disease control): tomato Botrytis
Septoria nodorum = assay: Test E: Septoria glume blotch, preventive spray on wheat seedlings, visual disease rating; details: 100 = 100% disease control, 0 = no disease control relative to the controls; for pest or weed control at 200 µg/mL: Parastagonospora nodorum, in Triticum aestivum, read-out: Test E rating (disease control), Septoria glume blotch; for Test E rating (disease control): Septoria glume blotch
Description: General protocol for preparing test suspensions for Tests A-I: the test compounds were first dissolved in acetone in an amount equal to 3% of the final volume and then suspended at the desired concentration (in ppm) in acetone and purified water (50/50 mix by volume) containing 250 ppm of the surfactant Trem® 014 (polyhydric alcohol esters). The resulting test suspensions were then used in Tests A-I. Each test was conducted in triplicate, and the results were averaged. Spraying a 200 ppm test suspension to the point of run-off on the test plants was the equivalent of a rate of about 800 g/ha. Unless otherwise indicated, the rating values indicate a 200 ppm test suspension was used. (An asterisk “*” next to the rating value indicates a 40 ppm test suspension was used.)
The test suspension was sprayed to the point of run-off on wheat seedlings. The following day the seedlings were inoculated with a spore suspension of Septoria nodorum (the causal agent of Septoria glume blotch) and incubated in a saturated atmosphere at 24° C. for 48 h, and then moved to a growth chamber at 20° C. for 9 days, after which time visual disease ratings were made.

[1] = test system: Blumeria graminis f. sp. tritici; assay: Test I: wheat powdery mildew, preventive spray on wheat seedlings, visual disease rating; details: 100 = 100% disease control, 0 = no disease control relative to the controls; for pest or weed control at 200 µg/mL: Blumeria graminis, in Triticum aestivum, read-out: Test I rating (disease control), wheat powdery mildew; for Test I rating (disease control): wheat powdery mildew
[2] = test system: Puccinia recondita f. sp. tritici; assay: Test G: wheat leaf rust, spray after inoculation (curative) on wheat seedlings, visual disease rating; type: in vivo; details: sprayed after inoculation, 100 = 100% disease control, 0 = no disease control
Text: as §1

[3] = test system: Puccinia recondita f. sp. tritici; assay: Test H: wheat leaf rust, preventive spray on wheat seedlings, visual disease rating; details: 100 = 100% disease control, 0 = no disease control; for pest or weed control at 200 µg/mL: read-out: Test H rating (disease control), wheat leaf rust, sprayed the day before inoculation; for Test H rating (disease control): wheat leaf rust, sprayed the day before inoculation

Structure (SMILES)	pest or weed control at 200 µg/mL (Alternaria solani)	pest or weed control at 200 µg/mL (Septoria tritici)	pest or weed control at 200 µg/mL (Botrytis cinerea)	pest or weed control at 200 µg/mL (Septoria nodorum)	pest or weed control at 200 µg/mL [1]	pest or weed control at 200 µg/mL [2]	pest or weed control at 200 µg/mL [3]	Test B rating (disease control) (Alternaria solani)	Test F rating (disease control) (Septoria tritici)	Test A rating (disease control) (Botrytis cinerea)	Test E rating (disease control) (Septoria nodorum)	Test I rating (disease control) [1]	Test G rating (disease control) [2]	Test H rating (disease control) [3]
Cc1nn(C)c(Nc2c(F)cc(Cl)cc2F)c1-c1ccc(F)cc1Br [Compound 129, 4-(2-bromo-4-fluorophenyl)-N-(4-chloro-2,6-difluorophenyl)-1,3-dimethyl-1H-pyrazol-5-amine]	97%	100%	100%	95%	100%	79%	100%							
Cc1nn(C)c(Oc2ccc(C#N)cc2F)c1-c1c(F)cccc1F [Compound 130, 4-[[4-(2,6-difluorophenyl)-1,3-dimethyl-1H-pyrazol-5-yl]oxy]-3-fluorobenzonitrile]	90%	100%	100%	0%	100%	0%	100%							
Cc1nn(C)c(Nc2c(F)cc(Br)cc2F)c1-c1ccc(F)cc1F [Compound 133, N-(4-bromo-2,6-difluorophenyl)-4-(2,4-difluorophenyl)-1,3-dimethyl-1H-pyrazol-5-amine]	97%	100%	99%	88%	100%	0%	99%							
Cc1nn(C)c(Nc2c(F)cc(Br)cc2F)c1-c1ccc(F)cc1Cl [Compound 134, N-(4-bromo-2,6-difluorophenyl)-4-(2-chloro-4-fluorophenyl)-1,3-dimethyl-1H-pyrazol-5-amine]	99%	100%	100%	64%	100%	74%	100%							
Cc1nn(C)c(Nc2c(Cl)cc(F)cc2Cl)c1-c1ccc(F)cc1F [Compound 137, N-(2,6-dichloro-4-fluorophenyl)-4-(2,4-difluorophenyl)-1,3-dimethyl-1H-pyrazol-5-amine]	95%	100%	100%	87%	100%	87%	99%							
Cc1nn(C)c(Oc2ccc(C#N)cc2Br)c1-c1ccc(F)cc1F [Compound 139, 3-bromo-4-[[4-(2,4-difluorophenyl)-1,3-dimethyl-1H-pyrazol-5-yl]oxy]benzonitrile]	0%	100%	82%	0%	0%	9%	89%							
Cc1nn(C)c(Oc2ccc(C#N)cc2Cl)c1-c1ccc(F)cc1F [Compound 140, 3-chloro-4-[[4-(2,4-difluorophenyl)-1,3-dimethyl-1H-pyrazol-5-yl]oxy]benzonitrile]	0%	100%	67%	0%	97%	9%	97%							
Cc1nn(C)c(Nc2c(F)cc(Cl)cc2Cl)c1-c1ccc(F)cc1F [Compound 141, N-(2,4-dichloro-6-fluorophenyl)-4-(2,4-difluorophenyl)-1,3-dimethyl-1H-pyrazol-5-amine]	99%	100%	99%	99%	100%	97%	100%							
Cc1nn(C)c(Nc2c(F)cc(F)cc2Br)c1-c1ccc(F)cc1Cl [Compound 144, N-(2-bromo-4,6-difluorophenyl)-4-(2-chloro-4-fluorophenyl)-1,3-dimethyl-1H-pyrazol-5-amine]	99%	100%	100%	100%	100%	100%	100%							
Cc1nn(C)c(C(O)c2c(F)cc(Cl)cc2F)c1-c1ccc(F)cc1Cl (stereo not drawn) [Compound 148, α-(4-chloro-2,6-difluorophenyl)-4-(2-chloro-4-fluorophenyl)-1,3-dimethyl-1H-pyrazole-5-methanol]	0%	100%	100%	60%	64%	0%	100%							
Cc1nn(C)c(Oc2ccc(Cl)cc2Cl)c1-c1c(F)cc(F)cc1F [compound 9]								9%	97%	99%	0%	99%	0%	99%
COc1cc(F)c(-c2c(C)nn(C)c2Oc2ccc(Cl)cc2Cl)c(F)c1 [compound 10]								0%	94%	99%	0%	99%	92%	99%
COc1cc(F)c(Nc2c(-c3ccc(F)cc3F)c(C)nn2C)c(F)c1 [compound 12]								0%	93%	100%	0%	82%	0%	94%
COc1ccc(-c2c(C)nn(C)c2Oc2c(F)cc(C#N)cc2F)c(F)c1 [compound 14]								100%	100%	99%	99%	99%	37%	100%
COc1cc(F)c(Nc2c(-c3ccc(Cl)cc3Cl)c(C)nn2C)c(F)c1 [compound 16]								98%	98%	99%	84%	99%	98%	99%
Cc1nn(C)c(Nc2c(F)cc(F)cc2F)c1-c1ccc(Cl)cc1Cl [compound 18]								98%	99%	100%	98%	97%	95%	99%
COc1cc(F)c(Nc2c(-c3c(F)cc(F)cc3F)c(C)nn2C)c(F)c1 [compound 19]								82%	98%	99%	0%	91%	0%	89%
COc1cc(F)c(-c2c(C)nn(C)c2Nc2c(F)cc(C#N)cc2F)c(F)c1 [compound 20]								100%	99%	100%	40%	13%	0%	68%
COc1cc(F)c(Nc2c(-c3c(F)cc(OC)cc3F)c(C)nn2C)c(F)c1 [compound 21]								100%	99%	100%	89%	94%	99%	96%
COc1cc(F)c(-c2c(C)nn(C)c2Oc2c(F)cccc2F)c(F)c1 [compound 22]								100%	100%	100%	78%	99%	98%	100%
